In US20030073681A1, “2-substituted piperidines that are ligands for monoamine receptors and transporters” (priority 2001, published 2003):
pIC50: −log10 of the molar value.

What was measured:
Human NE Receptor [1] = target: T1, Human NE Receptor (Homo sapiens, UniProt P23975); assay: Functional activity for norephinephrine uptake inhibition in MDCK cell lines; format: cell-based; details: read-out: Functional Assays (EC50, nM) Human NE Receptor
Human DA Receptor [2] = target: T2, Human DA Receptor (Homo sapiens, UniProt Q01959); assay: Dopamine functional activity in hDAT cell line; format: cell-based; set-up: expressed in transfected cells; details: read-out: Functional Assays (EC50, nM) Human DA Receptor
Human 5-HT Receptor [3] = target: T3, Human 5-HT Receptor (Homo sapiens, UniProt P31645); assay: Functional activity for serotonin uptake inhibition in human HEK-293 cell lines; format: cell-based; set-up: expressed in transfected cells; host or cells: HEK-293; details: read-out: Functional Assays (EC50, nM) Human 5-HT Receptor
Human NE Receptor [4] = target: T1, Human NE Receptor; assay: Displacement of norephinephrine ligands in vitro (uptake profile); format: binding
Human DA Receptor [5] = target: T2, Human DA Receptor; assay: Displacement of dopamine ligands in vitro (uptake profile)
Human 5-HT Receptor [6] = target: T3, Human 5-HT Receptor; assay: Displacement of serotonin ligands in vitro (uptake profile); format: binding

T3 sequence (P31645 whole entry): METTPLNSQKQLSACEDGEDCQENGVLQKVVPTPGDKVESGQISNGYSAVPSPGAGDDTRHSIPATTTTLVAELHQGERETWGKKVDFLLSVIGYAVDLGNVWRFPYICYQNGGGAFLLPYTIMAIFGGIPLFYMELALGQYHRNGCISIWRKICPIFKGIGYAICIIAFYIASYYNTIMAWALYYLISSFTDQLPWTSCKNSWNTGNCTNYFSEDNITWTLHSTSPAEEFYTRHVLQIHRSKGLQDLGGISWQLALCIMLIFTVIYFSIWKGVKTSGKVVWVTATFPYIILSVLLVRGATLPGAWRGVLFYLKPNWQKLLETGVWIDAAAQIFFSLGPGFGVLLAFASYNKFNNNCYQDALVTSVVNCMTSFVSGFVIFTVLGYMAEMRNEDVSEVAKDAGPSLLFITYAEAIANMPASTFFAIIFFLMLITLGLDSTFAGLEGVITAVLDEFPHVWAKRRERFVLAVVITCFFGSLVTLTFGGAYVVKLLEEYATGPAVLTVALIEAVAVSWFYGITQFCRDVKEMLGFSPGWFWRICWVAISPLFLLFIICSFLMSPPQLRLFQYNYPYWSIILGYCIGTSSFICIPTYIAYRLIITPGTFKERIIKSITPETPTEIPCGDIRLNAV
T1 sequence (P23975 whole entry): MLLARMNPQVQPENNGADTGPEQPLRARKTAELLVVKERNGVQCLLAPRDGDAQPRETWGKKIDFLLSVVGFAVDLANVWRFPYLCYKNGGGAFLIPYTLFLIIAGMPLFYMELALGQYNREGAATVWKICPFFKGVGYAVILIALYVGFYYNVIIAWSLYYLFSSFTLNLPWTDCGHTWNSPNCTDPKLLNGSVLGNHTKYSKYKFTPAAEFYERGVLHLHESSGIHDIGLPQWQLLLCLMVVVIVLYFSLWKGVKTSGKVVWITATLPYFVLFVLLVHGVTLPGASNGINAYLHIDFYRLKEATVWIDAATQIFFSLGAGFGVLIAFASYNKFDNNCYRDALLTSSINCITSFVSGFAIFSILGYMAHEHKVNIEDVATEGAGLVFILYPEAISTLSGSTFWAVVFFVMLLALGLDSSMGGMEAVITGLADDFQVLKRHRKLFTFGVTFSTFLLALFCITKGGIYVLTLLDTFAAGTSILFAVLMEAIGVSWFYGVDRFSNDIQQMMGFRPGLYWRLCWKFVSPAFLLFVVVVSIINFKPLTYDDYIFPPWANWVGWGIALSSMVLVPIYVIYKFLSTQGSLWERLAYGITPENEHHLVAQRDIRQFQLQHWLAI
T2 sequence (Q01959 whole entry): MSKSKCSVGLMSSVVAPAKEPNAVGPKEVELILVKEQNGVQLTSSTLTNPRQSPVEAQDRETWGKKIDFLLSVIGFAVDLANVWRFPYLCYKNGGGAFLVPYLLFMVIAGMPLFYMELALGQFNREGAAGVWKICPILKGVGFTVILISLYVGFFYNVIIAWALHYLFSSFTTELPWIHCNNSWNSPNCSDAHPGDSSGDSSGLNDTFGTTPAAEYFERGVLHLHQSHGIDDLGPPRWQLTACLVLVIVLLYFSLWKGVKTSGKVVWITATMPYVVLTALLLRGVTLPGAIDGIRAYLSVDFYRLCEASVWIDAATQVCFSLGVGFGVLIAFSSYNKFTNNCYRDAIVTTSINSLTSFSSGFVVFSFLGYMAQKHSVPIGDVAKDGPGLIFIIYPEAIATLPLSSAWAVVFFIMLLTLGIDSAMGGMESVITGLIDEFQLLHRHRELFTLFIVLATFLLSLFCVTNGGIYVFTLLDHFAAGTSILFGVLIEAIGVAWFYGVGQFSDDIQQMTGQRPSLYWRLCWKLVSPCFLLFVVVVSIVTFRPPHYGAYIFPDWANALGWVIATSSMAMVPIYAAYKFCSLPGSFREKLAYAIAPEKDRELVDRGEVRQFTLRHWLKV

| EC50 (Human NE Receptor [1]) [nM] | EC50 (Human DA Receptor [2]) [nM] | EC50 (Human 5-HT Receptor [3]) [nM] | IC50 (Human NE Receptor [4]) [nM] | pIC50 (Human DA Receptor [5]) | IC50 (Human 5-HT Receptor [6]) [nM] | SMILES |
| --- | --- | --- | --- | --- | --- | --- |
| > 1000 | > 1000 | < 1000 |  |  |  | CN1CCN(CC(O)c2ccc(Cl)cc2)C(CCc2ccc(C(F)(F)F)cc2)C1 (stereo not drawn) [Compound 30, 1-(4-Chloro-phenyl)-2-{4-methyl-2-[2-(4-trifluoromethyl-phenyl)-ethyl]-piperazin-1-yl}-ethanol] |
|  |  |  | < 100 | > 8.00 | < 1000 | OC(CN1CCCCC1CCOc1ccc(C(F)(F)F)cc1)C1(c2ccc(Cl)c(Cl)c2)CCC1 (stereo not drawn) [Compound 18, 1-[1-(3,4-Dichloro-phenyl)-cyclobutyl]-2-{2-[2-(4-trifluoromethyl-phenoxy)-ethyl]-piperidin-1-yl}-ethanol] |
| < 10 | < 100 | < 100 | < 100 | > 8.00 | < 1000 | O[C@H](CN1CCCCC1CCOc1ccc(C(F)(F)F)cc1)C1(c2ccc(Cl)cc2)CCC1 (stereo partly drawn) [Compound 9, 1-[1-(4-Chloro-phenyl)-cyclobutyl]-2-{2-[2-(4-trifluoromethyl-phenoxy)-ethyl]-piperidin-1-yl}-S-ethanol] |
| > 1000 | < 1000 | < 1000 |  |  |  | O=C(CCCN1CCCCC1CCOc1ccc(C(F)(F)F)cc1)c1ccc(F)cc1 (stereo not drawn) [Compound 32, 1-(4-Fluoro-phenyl)-4-{2-[2-(4-trifluoromethyl-phenoxy)-ethyl]-piperidin-1-yl}-butan-1-one] |
|  |  |  | < 1000 | > 7.00 | > 1000 | FC(F)(F)c1ccc(OCCC2CCCCN2CC2(c3ccc(Cl)cc3)CCC2)cc1 (stereo not drawn) [Compound 7, 1-[1-(4-Chloro-phenyl)-cyclobutylmethyl]-2-[2-(4-trifluoromethyl-phenoxy)-ethyl]-piperidine] |
|  |  |  | > 1000 | < 6.00 | > 1000 | CC(CN1CCCCC1CCOc1ccc(C(F)(F)F)cc1)C(=O)c1ccc(Cl)cc1 (stereo not drawn) [Compound 13, 1-(4-Chloro-phenyl)-2-methyl-3-{2-[2-(4-trifluoromethyl-phenoxy)-ethyl]-piperidin-1-yl}-propan-1-one] |
|  |  |  | < 1000 | > 7.00 | < 1000 | CC(CN1CCCCC1CCOc1ccc(C(F)(F)F)cc1)C(O)c1ccc(Cl)cc1 (stereo not drawn) [Compound 14, 1-(4-Chloro-phenyl)-2-methyl-3-{2-[2-(4-trifluoromethyl-phenoxy)-ethyl]-piperidin-1-yl}-propan-1-ol] |
